Structures are written as SMILES. ≈ marks a conversion by molar mass, not a printed value.

The first assay concerns Pasteurella multocida PM 6391 (ATCC 43137, reference strain). Briefly: MIC, broth-microdilution (CLSI VET01-A4), strain PM 6391. Particulars: Pasteurella multocida strain PM 6391, broth-microdilution; unit assumed. In kind it is cell-based. The procedure, abridged:
(§1)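 Broth microdilution per CLSI VET01-A4, using trays with a doubling dilution series of compound; results interpreted per CLSI VET01-S3. MIC taken as lowest concentration with no turbidity visible to the unaided eye.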
(Dilution methods test growth across graded concentrations, often in twofold steps.)
For `CSC(C)(C)C(NC(=O)c1ccc(C#Cc2ccc(CNCc3ccccc3)s2)cc1)C(=O)NO` (stereo not shown) [Compound 304], the MIC PM 6391 was determined as 1.6 mg/L (≈ 3.15 µM).
On the same count and under the same terms, the value for `CC[C@H](C)[C@H](NC(=O)c1ccc(C#Cc2ccc(CNC3CCCCC3)cc2)cc1)C(=O)NO` [Compound 195] was 0.8 mg/L (≈ 1.73 µM); that for `COCCNCc1ccc(C#Cc2ccc(C(=O)N[C@H](C(=O)NO)C(C)(C)S(C)(=O)=O)cc2)cc1` [Compound 257] was 0.2 mg/L (≈ 0.399 µM); that for `CC(C)(C(NC(=O)c1ccc(C#Cc2ccc(CNCc3ccc(C(F)(F)F)cc3)cc2)cc1)C(=O)NO)[N+](=O)[O-]` (stereo not shown) [Compound 279] was 1.6 mg/L (≈ 2.81 µM).

In another assay the test system is Mannheimia haemolytica MH 10720 (154, BRD field isolate). Briefly: MIC, broth-microdilution (CLSI VET01-A4), strain MH 10720. It counts as cell-based. Particulars: Mannheimia haemolytica strain MH 10720, broth-microdilution; unit assumed. The procedure, abridged: as §1
As for `CSC(C)(C)C(NC(=O)c1ccc(C#Cc2ccc(CNCc3ccccc3)s2)cc1)C(=O)NO` (stereo not shown) [Compound 304], the MIC MH 10720 is ≤ 0.1 mg/L.
In turn, `CC[C@H](C)[C@H](NC(=O)c1ccc(C#Cc2ccc(CNC3CCCCC3)cc2)cc1)C(=O)NO` [Compound 195] came in with an MIC MH 10720 of 1.6 mg/L (≈ 3.47 µM).
Same read-out and setting: with `COCCNCc1ccc(C#Cc2ccc(C(=O)N[C@H](C(=O)NO)C(C)(C)S(C)(=O)=O)cc2)cc1` [Compound 257] the figure was 0.4 mg/L (≈ 0.797 µM); with `CC(C)(C(NC(=O)c1ccc(C#Cc2ccc(CNCc3ccc(C(F)(F)F)cc3)cc2)cc1)C(=O)NO)[N+](=O)[O-]` (stereo not shown) [Compound 279], 1.6 mg/L (≈ 2.81 µM).

Another assay has as its system Mannheimia haemolytica MH 6357 (M7/2, reference strain, cattle infection strain). Briefly: MIC, broth-microdilution (CLSI VET01-A4), strain MH 6357. In kind it is cell-based. Particulars: Mannheimia haemolytica strain MH 6357, broth-microdilution; unit assumed. Put shortly: as §1
`CSC(C)(C)C(NC(=O)c1ccc(C#Cc2ccc(CNCc3ccccc3)s2)cc1)C(=O)NO` (stereo not shown) [Compound 304] returned an MIC MH 6357 of 0.8 mg/L (≈ 1.58 µM).
Consider `CC[C@H](C)[C@H](NC(=O)c1ccc(C#Cc2ccc(CNC3CCCCC3)cc2)cc1)C(=O)NO` [Compound 195], for which the MIC MH 6357 was 6.3 mg/L (≈ 13.6 µM).
Still for that read-out and setting: with `COCCNCc1ccc(C#Cc2ccc(C(=O)N[C@H](C(=O)NO)C(C)(C)S(C)(=O)=O)cc2)cc1` [Compound 257] the figure was 3.1 mg/L (≈ 6.18 µM); with `CC(C)(C(NC(=O)c1ccc(C#Cc2ccc(CNCc3ccc(C(F)(F)F)cc3)cc2)cc1)C(=O)NO)[N+](=O)[O-]` (stereo not shown) [Compound 279], 3.1 mg/L (≈ 5.45 µM).

The test system of another assay is Pasteurella multocida PM 12080 (IV102277-0093, BRD field isolate). As to the kind of experiment: MIC, broth-microdilution (CLSI VET01-A4), strain PM 12080. In kind it is cell-based. Particulars: Pasteurella multocida strain PM 12080, broth-microdilution; unit assumed. Put shortly:
as §1
The molecule `CSC(C)(C)C(NC(=O)c1ccc(C#Cc2ccc(CNCc3ccccc3)s2)cc1)C(=O)NO` (stereo not shown) [Compound 304] returned an MIC PM 12080 of 0.4 mg/L (≈ 0.788 µM).
Still for that read-out and setting: the value for `CC[C@H](C)[C@H](NC(=O)c1ccc(C#Cc2ccc(CNC3CCCCC3)cc2)cc1)C(=O)NO` [Compound 195] was 0.4 mg/L (≈ 0.867 µM); that for `COCCNCc1ccc(C#Cc2ccc(C(=O)N[C@H](C(=O)NO)C(C)(C)S(C)(=O)=O)cc2)cc1` [Compound 257] was ≤ 0.1 mg/L.
On the same count and under the same terms, with `CC(C)(C(NC(=O)c1ccc(C#Cc2ccc(CNCc3ccc(C(F)(F)F)cc3)cc2)cc1)C(=O)NO)[N+](=O)[O-]` (stereo not shown) [Compound 279] the figure was 1.6 mg/L (≈ 2.81 µM).

The next assay relates to Mannheimia haemolytica MH 13065 (XB0446-6003.9, BRD field isolate). Briefly: MIC, broth-microdilution (CLSI VET01-A4), strain MH 13065. It counts as cell-based. Particulars: Mannheimia haemolytica strain MH 13065, broth-microdilution; unit assumed. The procedure, abridged:
as §1
As for `CSC(C)(C)C(NC(=O)c1ccc(C#Cc2ccc(CNCc3ccccc3)s2)cc1)C(=O)NO` (stereo not shown) [Compound 304], the MIC MH 13065 turned out to be 1.6 mg/L (≈ 3.15 µM).
Same read-out and setting: with `CC[C@H](C)[C@H](NC(=O)c1ccc(C#Cc2ccc(CNC3CCCCC3)cc2)cc1)C(=O)NO` [Compound 195] the figure was 6.3 mg/L (≈ 13.6 µM); with `COCCNCc1ccc(C#Cc2ccc(C(=O)N[C@H](C(=O)NO)C(C)(C)S(C)(=O)=O)cc2)cc1` [Compound 257], 1.6 mg/L (≈ 3.19 µM).
Same read-out and setting: the value for `CC(C)(C(NC(=O)c1ccc(C#Cc2ccc(CNCc3ccc(C(F)(F)F)cc3)cc2)cc1)C(=O)NO)[N+](=O)[O-]` (stereo not shown) [Compound 279] was 6.3 mg/L (≈ 11.1 µM).

In the next assay the test system is Mannheimia haemolytica MH 13093 (XB0472-6014.1, BRD field isolate). As to the kind of experiment: MIC, broth-microdilution (CLSI VET01-A4), strain MH 13093. Particulars: Mannheimia haemolytica strain MH 13093, broth-microdilution; unit assumed. It counts as cell-based. Put shortly: as §1
As to `CSC(C)(C)C(NC(=O)c1ccc(C#Cc2ccc(CNCc3ccccc3)s2)cc1)C(=O)NO` (stereo not shown) [Compound 304], the MIC MH 13093 amounted to 3.1 mg/L (≈ 6.11 µM).
The same measure, in the same setting: with `CC[C@H](C)[C@H](NC(=O)c1ccc(C#Cc2ccc(CNC3CCCCC3)cc2)cc1)C(=O)NO` [Compound 195] the figure was 12.5 mg/L (≈ 27.1 µM).
Still for that read-out and setting: the value for `COCCNCc1ccc(C#Cc2ccc(C(=O)N[C@H](C(=O)NO)C(C)(C)S(C)(=O)=O)cc2)cc1` [Compound 257] was 1.6 mg/L (≈ 3.19 µM).
Same read-out and setting: the value for `CC(C)(C(NC(=O)c1ccc(C#Cc2ccc(CNCc3ccc(C(F)(F)F)cc3)cc2)cc1)C(=O)NO)[N+](=O)[O-]` (stereo not shown) [Compound 279] was 6.3 mg/L (≈ 11.1 µM).

A further assay concerns Pasteurella multocida PM 10775 (080130003051, BRD field isolate). As to the kind of experiment: MIC, broth-microdilution (CLSI VET01-A4), strain PM 10775. Particulars: Pasteurella multocida strain PM 10775, broth-microdilution; unit assumed. It counts as cell-based. Put shortly:
as §1
Consider `CSC(C)(C)C(NC(=O)c1ccc(C#Cc2ccc(CNCc3ccccc3)s2)cc1)C(=O)NO` (stereo not shown) [Compound 304], for which the MIC PM 10775 is ≤ 0.1 mg/L.
On to `CC[C@H](C)[C@H](NC(=O)c1ccc(C#Cc2ccc(CNC3CCCCC3)cc2)cc1)C(=O)NO` [Compound 195], for which the MIC PM 10775 is ≤ 0.1 mg/L.
In the case of `COCCNCc1ccc(C#Cc2ccc(C(=O)N[C@H](C(=O)NO)C(C)(C)S(C)(=O)=O)cc2)cc1` [Compound 257], the MIC PM 10775 was ≤ 0.1 mg/L.
Same read-out and setting: the value for `CC(C)(C(NC(=O)c1ccc(C#Cc2ccc(CNCc3ccc(C(F)(F)F)cc3)cc2)cc1)C(=O)NO)[N+](=O)[O-]` (stereo not shown) [Compound 279] was 0.4 mg/L (≈ 0.704 µM).

For another assay, the system named is Pasteurella multocida PM 6267 (P 2225 (L386), reference strain, mouse infection strain). Briefly: MIC, broth-microdilution (CLSI VET01-A4), strain PM 6267. In kind it is cell-based. Particulars: Pasteurella multocida strain PM 6267, broth-microdilution; unit assumed. The procedure, abridged:
as §1
Molecule `CSC(C)(C)C(NC(=O)c1ccc(C#Cc2ccc(CNCc3ccccc3)s2)cc1)C(=O)NO` (stereo not shown) [Compound 304] returned an MIC PM 6267 of 1.6 mg/L (≈ 3.15 µM).
On the same count and under the same terms, the value for `CC[C@H](C)[C@H](NC(=O)c1ccc(C#Cc2ccc(CNC3CCCCC3)cc2)cc1)C(=O)NO` [Compound 195] was 0.2 mg/L (≈ 0.433 µM); that for `COCCNCc1ccc(C#Cc2ccc(C(=O)N[C@H](C(=O)NO)C(C)(C)S(C)(=O)=O)cc2)cc1` [Compound 257] was ≤ 0.1 mg/L; that for `CC(C)(C(NC(=O)c1ccc(C#Cc2ccc(CNCc3ccc(C(F)(F)F)cc3)cc2)cc1)C(=O)NO)[N+](=O)[O-]` (stereo not shown) [Compound 279] was 0.4 mg/L (≈ 0.704 µM).

In another assay the test system is Mannheimia haemolytica MH 6374 (ATCC 33396, reference strain). As to the kind of experiment: MIC, broth-microdilution (CLSI VET01-A4), strain MH 6374. Particulars: Mannheimia haemolytica strain MH 6374, broth-microdilution; unit assumed. It counts as cell-based. Put shortly: as §1
For `CSC(C)(C)C(NC(=O)c1ccc(C#Cc2ccc(CNCc3ccccc3)s2)cc1)C(=O)NO` (stereo not shown) [Compound 304], the MIC MH 6374 is 1.6 mg/L (≈ 3.15 µM).
Same read-out and setting: with `CC[C@H](C)[C@H](NC(=O)c1ccc(C#Cc2ccc(CNC3CCCCC3)cc2)cc1)C(=O)NO` [Compound 195] the figure was 12.5 mg/L (≈ 27.1 µM).
Still for that read-out and setting: with `COCCNCc1ccc(C#Cc2ccc(C(=O)N[C@H](C(=O)NO)C(C)(C)S(C)(=O)=O)cc2)cc1` [Compound 257] the figure was 1.6 mg/L (≈ 3.19 µM); with `CC(C)(C(NC(=O)c1ccc(C#Cc2ccc(CNCc3ccc(C(F)(F)F)cc3)cc2)cc1)C(=O)NO)[N+](=O)[O-]` (stereo not shown) [Compound 279], 6.3 mg/L (≈ 11.1 µM).

A further assay deals with Mannheimia haemolytica MH 12587 (1071, BRD field isolate, macrolide-resistance: erm+, E+). Briefly: MIC, broth-microdilution (CLSI VET01-A4), strain MH 12587. It counts as cell-based. Particulars: Mannheimia haemolytica strain MH 12587, broth-microdilution; unit assumed. Put shortly: as §1
On to `CSC(C)(C)C(NC(=O)c1ccc(C#Cc2ccc(CNCc3ccccc3)s2)cc1)C(=O)NO` (stereo not shown) [Compound 304], for which the MIC MH 12587 came out at 1.6 mg/L (≈ 3.15 µM).
Still for that read-out and setting: the value for `CC[C@H](C)[C@H](NC(=O)c1ccc(C#Cc2ccc(CNC3CCCCC3)cc2)cc1)C(=O)NO` [Compound 195] was 12.5 mg/L (≈ 27.1 µM); that for `COCCNCc1ccc(C#Cc2ccc(C(=O)N[C@H](C(=O)NO)C(C)(C)S(C)(=O)=O)cc2)cc1` [Compound 257] was 3.1 mg/L (≈ 6.18 µM).
Same read-out and setting: with `CC(C)(C(NC(=O)c1ccc(C#Cc2ccc(CNCc3ccc(C(F)(F)F)cc3)cc2)cc1)C(=O)NO)[N+](=O)[O-]` (stereo not shown) [Compound 279] the figure was 6.3 mg/L (≈ 11.1 µM).

The record behind these values is patent US11034650B2, “Compounds useful for treating a Mannheimia haemolytica or Histophilus somni infection” (Intervet Inc., priority 2016, dated 2021).
